Reference: patent publication US9102701B2, “17-hydroxy-17-pentafluoroethyl-estra-4,9(10)-diene-11-ethynylphenyl derivatives, methods for the production thereof and use thereof for treating diseases” (Bayer Intellectual Property GmbH, priority 2009, dated 2015)
In brackets after ≈: the same amount, converted by molar mass.

Experiments:
[1] = target: T1, human progesterone receptor A (Homo sapiens, UniProt P06401); test: Progesterone receptor-antagonistic action in stably transfected SK-N-MC cells, PR-A, MMTV-LUC reporter; type: cell-based; conditions: read-out: IC50 PR-A
T1 construct: expressed in transfected cells; host or cells: SK-N-MC human neuroblastoma cells, stably transfected with pRChPR-A-neo and pMMTV-LUC
T1 sequence (P06401 1-769 isoform P06401-2): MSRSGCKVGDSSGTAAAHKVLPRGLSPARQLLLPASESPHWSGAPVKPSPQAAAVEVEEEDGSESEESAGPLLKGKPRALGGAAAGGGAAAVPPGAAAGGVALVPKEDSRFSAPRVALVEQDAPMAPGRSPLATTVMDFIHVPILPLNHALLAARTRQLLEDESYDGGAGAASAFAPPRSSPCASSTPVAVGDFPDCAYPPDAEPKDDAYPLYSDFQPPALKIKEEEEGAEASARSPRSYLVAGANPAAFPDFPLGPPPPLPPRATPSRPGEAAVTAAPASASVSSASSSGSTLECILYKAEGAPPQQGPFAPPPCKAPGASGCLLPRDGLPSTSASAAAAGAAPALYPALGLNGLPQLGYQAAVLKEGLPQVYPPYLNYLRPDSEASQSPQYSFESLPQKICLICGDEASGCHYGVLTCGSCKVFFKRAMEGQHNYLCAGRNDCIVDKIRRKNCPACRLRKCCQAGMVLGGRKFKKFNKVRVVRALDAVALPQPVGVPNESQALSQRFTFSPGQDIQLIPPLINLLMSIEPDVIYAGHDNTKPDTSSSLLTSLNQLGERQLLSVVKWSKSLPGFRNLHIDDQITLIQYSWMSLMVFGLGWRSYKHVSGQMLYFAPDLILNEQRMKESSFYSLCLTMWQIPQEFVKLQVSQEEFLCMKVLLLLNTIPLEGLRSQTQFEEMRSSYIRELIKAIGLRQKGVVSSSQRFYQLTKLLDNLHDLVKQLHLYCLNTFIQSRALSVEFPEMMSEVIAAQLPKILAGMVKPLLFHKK
Outline: (§1)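 SK-N-MC neuroblastoma cells stably expressing human PR-A or PR-B plus MMTV-LUC reporter, treated 24 h with compound (0.01 nmol/l upward). Antagonism measured against 0.1 nmol/l promegestone; luciferase in lysates as RLU, given as % efficacy and IC50 (agonism as EC50).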

[2] = target: T2, human progesterone receptor B (Homo sapiens, UniProt P06401); test: Progesterone receptor-antagonistic action in stably transfected SK-N-MC cells, PR-B, MMTV-LUC reporter; type: cell-based; conditions: read-out: IC50 PR-B
T2 construct: expressed in transfected cells; host or cells: SK-N-MC human neuroblastoma cells, stably transfected with pRChPR-B-neo and pMMTV-LUC
T2 sequence (P06401 1-933): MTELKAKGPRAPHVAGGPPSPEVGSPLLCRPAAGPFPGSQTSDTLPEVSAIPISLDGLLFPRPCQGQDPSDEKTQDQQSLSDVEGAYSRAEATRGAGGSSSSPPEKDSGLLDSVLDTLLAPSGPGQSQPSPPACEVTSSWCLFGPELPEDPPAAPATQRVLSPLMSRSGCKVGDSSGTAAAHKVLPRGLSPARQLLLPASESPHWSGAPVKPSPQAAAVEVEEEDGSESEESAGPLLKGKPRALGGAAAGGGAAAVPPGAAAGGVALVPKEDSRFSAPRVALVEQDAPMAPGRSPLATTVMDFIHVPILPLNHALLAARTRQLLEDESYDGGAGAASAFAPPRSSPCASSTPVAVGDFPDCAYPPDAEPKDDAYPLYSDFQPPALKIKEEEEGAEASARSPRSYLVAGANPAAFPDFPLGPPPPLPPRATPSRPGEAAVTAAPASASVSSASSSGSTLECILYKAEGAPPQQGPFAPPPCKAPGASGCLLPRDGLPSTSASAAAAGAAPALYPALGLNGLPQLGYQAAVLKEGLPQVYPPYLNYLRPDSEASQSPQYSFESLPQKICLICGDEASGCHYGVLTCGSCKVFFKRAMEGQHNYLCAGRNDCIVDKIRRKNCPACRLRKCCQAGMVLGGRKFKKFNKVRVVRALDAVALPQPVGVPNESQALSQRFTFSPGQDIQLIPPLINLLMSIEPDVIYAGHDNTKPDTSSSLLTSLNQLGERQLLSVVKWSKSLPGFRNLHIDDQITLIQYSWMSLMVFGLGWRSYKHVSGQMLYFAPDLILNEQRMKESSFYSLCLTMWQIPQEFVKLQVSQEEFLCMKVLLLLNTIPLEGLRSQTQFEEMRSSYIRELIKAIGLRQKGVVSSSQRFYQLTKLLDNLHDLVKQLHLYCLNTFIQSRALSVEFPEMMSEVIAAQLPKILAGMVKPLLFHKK
Outline: as §1

[3] = Metabolic stability in human liver microsomes; type: in vitro ADME; conditions: for Predicted clearance Human: predicted in vivo clearance from liver microsomes, well-stirred model, 1 μM; for Predicted Fmax (maximum oral bioavailability) Human: calculated from liver microsome data
Method: Determination of Metabolic Stability in Human and Rat Liver Microsomes
Isolated Human Liver Microsomes (HLM) were Used to Assess the Metabolic Stability of compounds of general formula I.
The incubations were conducted with 2.4 ml of HLM solution (protein content 0.5 mg/ml), 30 μl of the test compound (final concentration 1 μM) and 0.6 ml of the cofactor mixture (═NADPH-generating system composed of 3 IU glucose-6-phosphate dehydrogenase, 14.6 mg glucose-6-phosphate, 1.2 mg NADP) at 37° C. in 100 mM phosphate buffer at pH 7.4. Samples were taken at 6 time points (2-60 min) and precipitated with an equal volume of methanol, and the recovery of the test substances used in the supernatant was determined by LC-MS/MS analysis. The half-life of substance degradation determined therefrom was used to calculate what is called the intrinsic clearance of the substance in the liver microsome preparation.

[4] = Solubility in aqueous medium at pH 7.4; type: physicochemical; conditions: for solubility (in words): aqueous medium under physiological conditions; for solubility: aqueous medium, pH 7.4, aqueous buffer
pregnant rats = test: Abortion test on female rats; type: in vivo; conditions: d5-d7 p.c., autopsy d9 p.c.
Method: Abortion Test on Female Rats
The action of progesterone and of the progesterone receptor is a fundamental precondition for successful pregnancy or gestation in mammals. The progesterone-antagonistic action of the inventive compounds was tested on pregnant rats (6 rats per group) on days 5 to 7 post coitum under conventional housing and feeding conditions.
After successful mating, the pregnant animals (presence of sperm in the vaginal smear on day 1 of pregnancy=d1 p.c.) were randomized and divided into the treatment group and the control group. The animals then each received subcutaneously or orally 0.15; 0.5; 1.5 or 5 mg/kg of the test compound or 1.0 ml/kg of vehicle (benzyl benzoate/castor oil: 1+4 [v/v]) daily from day 5 to day 7 (d5−d7 p.c.).
Autopsy was conducted on day 9 (d9 p.c.). As a characteristic of progesterone receptor-antagonistic action, the uterus was examined for the presence of nidation sites. Complete absence, or else the presence of pathological, haemorrhagic or otherwise abnormal nidation sites, on day 9 (d9 p.c.) was considered as abortion.

Row | SMILES | IC50 [1] [nM] | IC50 [2] [nM] | Predicted clearance Human [3] [mL/min/kg] | solubility (in words) [4] | solubility [4] [µg/mL] | Predicted Fmax (maximum oral bioavailability) Human [3] [%] | Abortion rate (pregnant rats; daily dose 0.5 mg/kg p.o.) [%] | Abortion rate (pregnant rats; daily dose 1.5 mg/kg p.o.) [%] | Abortion rate (pregnant rats; daily dose 5.0 mg/kg p.o.) [%]
1 | C[C@]12C[C@H](c3ccc(C#C/C=C/c4cccc(C(=O)O)c4)cc3)C3=C4CCC(=O)C=C4CCC3C1CC[C@@]2(O)C(F)(F)C(F)(F)F (stereo partly drawn) [Example 13A, 3-{(E)-4-[4-((8S,11R,13S,14S,17S)-17-hydroxy-13-methyl-3-oxo-17-pentafluoroethyl-2,3,6,7,8,11,12,13,14,15,16,17-dodecahydro-1H-cyclopenta[a]phenanthren-1′-yl)phenyl]but-1-en-3-ynyl}benzoic acid] | 0.1 | 0.2 | 5.17 | improved solubility | 148 (≈ 232 µM) |  |  |  | 
2 | C[C@]12C[C@H](c3ccc(C#C/C=N/OCc4ccccc4)cc3)C3=C4CCC(=O)C=C4CCC3C1CC[C@@]2(O)C(F)(F)C(F)(F)F (stereo partly drawn) [Example 24A, (E)-[4-((8S,11R,13S,14S,17S)-17-hydroxy-13-methyl-3-oxo-17-pentafluoroethyl-2,3,6,7,8,11,12,13,14,15,16,17-dodecahydro-1H-cyclopenta[a]phenanthren-1′-yl)phenyl]propynal O-benzyl oxime] | 0.1 | 0.1 | 14.7 |  | 5 (≈ 8.02 µM) | 34 |  |  | 
3 | C[C@]12C[C@H](c3ccc(C#CCO)cc3)C3=C4CCC(=O)C=C4CC[C@H]3[C@@H]1CC[C@@]2(O)C(F)(F)C(F)(F)F [Example 1, (8S,11R,13S,14S,17S)-17-hydroxy-11-[4-(3-hydroxyprop-1-yn-1-yl)phenyl]-13-methyl-17-pentafluoroethyl-1,2,6,7,8,11,12,13,14,15,16,17-dodecahydrocyclopenta[a]phenanthren-3-one] | 0.097 | 0.11 | 5.33 |  | 13 (≈ 25 µM) |  | 100 | 100 | 100
4 | C[C@]12C[C@H](c3ccc(C#CCNC(=O)Nc4ccccc4)cc3)C3=C4CCC(=O)C=C4CC[C@H]3[C@@H]1CC[C@@]2(O)C(F)(F)C(F)(F)F [Example 34, 1-{3-[4-((8S,11R,13S,14S,17S)-17-hydroxy-13-methyl-3-oxo-17-pentafluoroethyl-2,3,6,7,8,11,12,13,14,15,16,17-dodecahydro-1H-cyclopenta[a]phenanthren-11-yl)phenyl]prop-2-ynyl}-3-phenylurea] | 0.1 | 0.1 | 20.2 |  | 7 (≈ 11 µM) | 9 |  |  | 
5 | C[C@]12C[C@H](c3ccc(C#CC(=O)O)cc3)C3=C4CCC(=O)C=C4CCC3C1CC[C@@]2(O)C(F)(F)C(F)(F)F (stereo partly drawn) [Example 2, [4-((8S,11R,13S,14S,17S)-17-hydroxy-13-methyl-3-oxo-17-pentafluoroethyl-2,3,6,7,8,11,12,13,14,15,16,17-dodecahydro-4H-cyclopenta[a]phenanthren-11-yl)phenyl]propynoic acid] | 32 | 16 | 0 | improved solubility | 178 (≈ 333 µM) |  |  |  | 
6 | C[C@]12C[C@H](c3ccc(C#CCNC(=O)Nc4ccc(F)cc4)cc3)C3=C4CCC(=O)C=C4CC[C@H]3[C@@H]1CC[C@@]2(O)C(F)(F)C(F)(F)F [Example 36, 1-{3-[4-((8S,11R,13S,14S,17S)-17-hydroxy-13-methyl-3-oxo-17-pentafluoroethyl-2,3,6,7,8,11,12,13,14,15,16,17-dodecahydro-1H-cyclopenta[a]phenanthren-11-yl)phenyl]prop-2-ynyl}-3-(4-fluorophenyl)urea] | 0.1 | 0.2 | 10 |  | 4 (≈ 6.09 µM) | 55 |  |  | 
7 | C[C@]12C[C@H](c3ccc(C#CCOCCO)cc3)C3=C4CCC(=O)C=C4CC[C@H]3[C@@H]1CC[C@@]2(O)C(F)(F)C(F)(F)F [Example 11, (8S,11R,13S,14S,17S)-17-hydroxy-11-{4-[3-(2-hydroxyethoxy)prop-1-yn-1-yl]-phenyl}-13-methyl-17-pentafluoroethyl-1,2,6,7,8,11,12,13,14,15,16,17-dodecahydrocyclopenta[a]phenanthren-3-one] | 0.32 | 1 | 8.17 | improved solubility | 30 (≈ 53.1 µM) | 63 |  |  | 
8 | C[C@]12C[C@H](c3ccc(C#C/C=C\C#N)cc3)C3=C4CCC(=O)C=C4CCC3C1CC[C@@]2(O)C(F)(F)C(F)(F)F (stereo partly drawn) [Example 5, (Z)-5-[4-((8S,11R,13S,14S,17S)-17-hydroxy-13-methyl-3-oxo-17-pentafluoroethyl-2,3,6,7,8,11,12,13,14,15,16,17-dodecahydro-1H-cyclopenta[a]phenanthren-1′-yl)phenyl]pent-2-en-4-ynenitrile] | 0.72 | 0.76 | 2.83 |  | 8 (≈ 14.8 µM) |  |  |  | 
